Experiment [1] concerns the target Serine/threonine-protein kinase VRK2 (Homo sapiens) (UniProt Q86Y07). Kind of experiment: Selectivity interaction (ProQinase) EUB0000171b VRK2.
In experiment [2] the target is T1, Phosphatidylinositol 5-phosphate 4-kinase type-2 beta (Homo sapiens) (UniProt P78356).
T1 sequence (whole entry): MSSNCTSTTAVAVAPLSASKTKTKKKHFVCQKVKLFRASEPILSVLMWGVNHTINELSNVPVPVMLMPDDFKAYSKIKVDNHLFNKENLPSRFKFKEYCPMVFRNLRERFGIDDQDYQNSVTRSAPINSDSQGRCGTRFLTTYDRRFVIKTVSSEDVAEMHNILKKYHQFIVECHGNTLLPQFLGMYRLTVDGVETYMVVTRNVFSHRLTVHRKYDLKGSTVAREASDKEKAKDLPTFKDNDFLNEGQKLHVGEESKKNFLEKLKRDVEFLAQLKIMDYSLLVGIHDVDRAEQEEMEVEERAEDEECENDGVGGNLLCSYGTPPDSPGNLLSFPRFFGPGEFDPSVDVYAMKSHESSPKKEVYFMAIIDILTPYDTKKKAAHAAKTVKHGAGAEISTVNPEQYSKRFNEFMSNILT
The conditions noted are these: at 10 µM.

In experiment [3] the target is T2, Uncharacterized serine/threonine-protein kinase SBK3 (Homo sapiens) (UniProt P0C264).
T2 sequence (whole entry): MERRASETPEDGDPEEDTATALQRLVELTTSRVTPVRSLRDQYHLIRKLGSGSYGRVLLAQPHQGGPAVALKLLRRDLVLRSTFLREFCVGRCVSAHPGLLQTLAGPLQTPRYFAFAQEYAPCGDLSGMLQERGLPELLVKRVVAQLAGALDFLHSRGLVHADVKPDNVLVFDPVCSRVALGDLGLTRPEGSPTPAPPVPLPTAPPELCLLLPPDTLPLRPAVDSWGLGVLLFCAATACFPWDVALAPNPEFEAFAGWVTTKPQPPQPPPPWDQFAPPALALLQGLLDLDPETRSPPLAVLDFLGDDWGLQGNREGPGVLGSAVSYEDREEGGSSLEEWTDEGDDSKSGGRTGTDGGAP
Conditions: at 10 µM.

In experiment [4] the target is T3, Serine/threonine-protein kinase Nek2 (Homo sapiens) (UniProt P51955).
T3 sequence (whole entry): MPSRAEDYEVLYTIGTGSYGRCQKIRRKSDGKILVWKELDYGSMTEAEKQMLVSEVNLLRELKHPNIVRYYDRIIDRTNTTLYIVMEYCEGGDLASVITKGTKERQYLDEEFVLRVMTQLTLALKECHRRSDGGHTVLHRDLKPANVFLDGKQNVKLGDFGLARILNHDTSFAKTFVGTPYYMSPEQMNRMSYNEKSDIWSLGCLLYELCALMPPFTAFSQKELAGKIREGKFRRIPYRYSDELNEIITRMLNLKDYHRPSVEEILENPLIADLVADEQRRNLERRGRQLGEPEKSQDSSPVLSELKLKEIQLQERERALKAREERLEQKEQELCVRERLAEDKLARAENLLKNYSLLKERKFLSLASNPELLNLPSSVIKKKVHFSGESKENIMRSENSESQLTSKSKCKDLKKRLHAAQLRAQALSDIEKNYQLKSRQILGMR
The conditions noted are these: at 10 µM.

In experiment [5] the target is Cyclin-dependent kinase 16 (Homo sapiens) (UniProt Q00536). Kind of experiment: Selectivity interaction (KinomeScan (DiscoverX)) EUB0000655a CDK16. Conditions: at 10 µM.
Chain of Cyclin-dependent kinase 16 (Homo sapiens) (Q00536 whole entry): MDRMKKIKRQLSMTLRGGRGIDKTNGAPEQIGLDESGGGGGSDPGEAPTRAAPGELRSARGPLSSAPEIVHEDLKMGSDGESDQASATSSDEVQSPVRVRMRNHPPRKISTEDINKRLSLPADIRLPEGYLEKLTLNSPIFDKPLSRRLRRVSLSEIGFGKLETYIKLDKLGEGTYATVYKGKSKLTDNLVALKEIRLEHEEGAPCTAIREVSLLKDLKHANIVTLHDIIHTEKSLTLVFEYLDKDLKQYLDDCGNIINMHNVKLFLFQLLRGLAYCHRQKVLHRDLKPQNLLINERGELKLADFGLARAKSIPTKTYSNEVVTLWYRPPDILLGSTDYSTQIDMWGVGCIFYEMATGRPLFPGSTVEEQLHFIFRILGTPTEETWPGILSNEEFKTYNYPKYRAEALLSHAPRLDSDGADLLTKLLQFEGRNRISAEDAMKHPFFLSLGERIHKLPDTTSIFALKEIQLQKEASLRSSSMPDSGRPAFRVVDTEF
In experiment [6] the target is Dual specificity protein kinase CLK4 (Homo sapiens, UniProt Q9HAZ1). Kind of experiment: Selectivity interaction (LanthaScreen Eu Kinase Binding Assay) EUB0001632a CLK4. Conditions: at 10 µM.
Chain of Dual specificity protein kinase CLK4 (Q9HAZ1 whole entry, looked up): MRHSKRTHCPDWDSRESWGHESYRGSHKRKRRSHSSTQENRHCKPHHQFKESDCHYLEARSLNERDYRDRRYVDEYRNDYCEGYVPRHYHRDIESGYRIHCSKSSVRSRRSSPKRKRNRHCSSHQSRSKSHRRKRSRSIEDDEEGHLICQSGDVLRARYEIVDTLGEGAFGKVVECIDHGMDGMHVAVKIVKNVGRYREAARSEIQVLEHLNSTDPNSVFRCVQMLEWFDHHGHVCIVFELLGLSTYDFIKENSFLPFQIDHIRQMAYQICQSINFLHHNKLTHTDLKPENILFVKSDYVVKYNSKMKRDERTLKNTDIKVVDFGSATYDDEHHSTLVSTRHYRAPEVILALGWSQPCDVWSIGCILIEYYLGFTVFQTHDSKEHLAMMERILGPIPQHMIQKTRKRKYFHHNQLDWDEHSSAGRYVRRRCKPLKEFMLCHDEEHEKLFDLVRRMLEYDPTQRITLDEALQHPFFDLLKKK
Experiment [7] has as its target BDNF/NT-3 growth factors receptor (Homo sapiens) (UniProt Q16620). Kind of experiment: Selectivity interaction (Kinase panel (Z-LYTE Assay)) EUB0001632a NTRK2. Conditions: at 10 µM.
Experiment [8] addresses T4, Aurora kinase A (Homo sapiens) (UniProt O14965).
T4 sequence (whole entry): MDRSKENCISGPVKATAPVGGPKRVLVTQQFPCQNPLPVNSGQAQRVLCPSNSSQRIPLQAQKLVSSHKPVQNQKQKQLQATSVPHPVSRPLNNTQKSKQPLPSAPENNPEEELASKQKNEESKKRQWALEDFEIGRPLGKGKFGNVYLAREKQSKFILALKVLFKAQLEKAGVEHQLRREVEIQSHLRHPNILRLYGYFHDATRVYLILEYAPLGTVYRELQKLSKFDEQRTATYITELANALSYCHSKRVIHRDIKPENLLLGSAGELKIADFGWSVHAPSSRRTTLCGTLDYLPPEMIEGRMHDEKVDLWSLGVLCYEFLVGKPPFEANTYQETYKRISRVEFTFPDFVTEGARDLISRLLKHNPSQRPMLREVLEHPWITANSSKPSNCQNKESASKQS
Kind of experiment: Selectivity interaction (ActivX KiNativ screen (kinase selectivity in THP-1 cell lysates)) EUB0000639a STK6. Conditions: lysate, at 0.01 µM. The class given is subcellular.

For experiment [9], the target named is Cyclin-dependent kinase 14 (Homo sapiens) (UniProt O94921). Kind of experiment: Selectivity interaction (ActivX KiNativ screen (kinase selectivity in THP-1 cell lysates)) EUB0000639a CDK14. It is filed as subcellular. Conditions: lysate, at 1 µM.
Chain of Cyclin-dependent kinase 14 (Homo sapiens) (O94921 whole entry): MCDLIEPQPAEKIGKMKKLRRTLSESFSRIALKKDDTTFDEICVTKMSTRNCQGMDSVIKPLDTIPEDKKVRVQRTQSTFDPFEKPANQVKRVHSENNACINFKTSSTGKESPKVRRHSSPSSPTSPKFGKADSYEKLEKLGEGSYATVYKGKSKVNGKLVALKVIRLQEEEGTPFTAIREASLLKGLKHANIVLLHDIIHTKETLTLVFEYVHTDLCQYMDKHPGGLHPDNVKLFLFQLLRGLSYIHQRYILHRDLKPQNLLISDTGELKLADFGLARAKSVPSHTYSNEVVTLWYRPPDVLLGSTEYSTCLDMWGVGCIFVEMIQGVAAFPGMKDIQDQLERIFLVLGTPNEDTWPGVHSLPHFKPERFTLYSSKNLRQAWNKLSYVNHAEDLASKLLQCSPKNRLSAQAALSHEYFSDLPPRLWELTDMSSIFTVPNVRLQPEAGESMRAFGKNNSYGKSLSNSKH
Experiment [10] deals with Cyclin-dependent kinase 1/cyclin B (Homo sapiens, UniProt P06493). Kind of experiment: Selectivity interaction (Kinase panel (Enzyme activity assay)) EUB0000612a CDK1. The class given is protein-complex assay.
For experiment [11], the target named is Ribosomal protein S6 kinase alpha-5 (Homo sapiens) (UniProt O75582). Kind of experiment: Selectivity interaction (KinomeScan (DiscoverX)) EUB0000229b RPS6KA5. Conditions: at 10 µM.
Chain of Ribosomal protein S6 kinase alpha-5 (Homo sapiens) (O75582 whole entry, looked up): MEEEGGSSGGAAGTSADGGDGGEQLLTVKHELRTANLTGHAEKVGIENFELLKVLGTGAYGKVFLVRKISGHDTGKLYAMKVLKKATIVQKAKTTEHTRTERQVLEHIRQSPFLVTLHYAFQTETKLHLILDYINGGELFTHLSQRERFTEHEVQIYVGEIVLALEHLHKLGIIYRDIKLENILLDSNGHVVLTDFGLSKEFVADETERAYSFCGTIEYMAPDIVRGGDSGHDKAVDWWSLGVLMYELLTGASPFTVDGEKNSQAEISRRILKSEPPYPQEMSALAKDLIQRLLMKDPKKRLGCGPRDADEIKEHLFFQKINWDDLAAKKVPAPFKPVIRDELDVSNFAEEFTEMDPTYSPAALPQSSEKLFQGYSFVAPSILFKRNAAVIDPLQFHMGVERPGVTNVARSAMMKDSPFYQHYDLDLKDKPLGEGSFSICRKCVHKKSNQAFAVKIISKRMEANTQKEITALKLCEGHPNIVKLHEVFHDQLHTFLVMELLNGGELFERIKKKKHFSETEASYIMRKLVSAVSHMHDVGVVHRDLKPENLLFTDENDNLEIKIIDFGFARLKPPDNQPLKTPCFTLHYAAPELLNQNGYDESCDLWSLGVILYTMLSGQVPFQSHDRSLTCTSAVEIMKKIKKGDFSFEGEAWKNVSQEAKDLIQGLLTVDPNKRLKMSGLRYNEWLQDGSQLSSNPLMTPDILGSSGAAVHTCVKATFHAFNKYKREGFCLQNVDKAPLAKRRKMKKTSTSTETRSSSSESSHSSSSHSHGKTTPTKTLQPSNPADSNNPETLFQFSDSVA
Experiment [12] has as its target T5, Serine/threonine-protein kinase Nek3 (Homo sapiens) (UniProt P51956).
T5 sequence (whole entry): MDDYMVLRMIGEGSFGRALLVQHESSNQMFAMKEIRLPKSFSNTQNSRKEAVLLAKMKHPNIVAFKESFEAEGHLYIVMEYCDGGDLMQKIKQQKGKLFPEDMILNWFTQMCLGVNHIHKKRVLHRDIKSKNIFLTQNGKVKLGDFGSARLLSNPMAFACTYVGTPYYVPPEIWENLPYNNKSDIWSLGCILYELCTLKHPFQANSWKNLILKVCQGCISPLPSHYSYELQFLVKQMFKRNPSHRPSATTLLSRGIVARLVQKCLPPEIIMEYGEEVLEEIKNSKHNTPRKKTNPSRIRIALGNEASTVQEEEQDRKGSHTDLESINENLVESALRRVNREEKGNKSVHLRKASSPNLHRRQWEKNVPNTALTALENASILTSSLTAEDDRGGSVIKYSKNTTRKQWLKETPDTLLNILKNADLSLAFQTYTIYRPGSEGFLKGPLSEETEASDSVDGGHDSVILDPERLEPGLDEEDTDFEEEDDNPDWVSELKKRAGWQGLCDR
Kind of experiment: Selectivity interaction (KinomeScan (DiscoverX)) EUB0000595a NEK3. Conditions: at 10 µM.

Experiment [13] deals with MAP kinase-interacting serine/threonine-protein kinase 2 (Homo sapiens, UniProt Q9HBH9). Kind of experiment: Selectivity interaction (KinomeScan (DiscoverX)) EUB0000618a MKNK2. Conditions: at 10 µM.
Chain of MAP kinase-interacting serine/threonine-protein kinase 2 (Q9HBH9 whole entry, looked up): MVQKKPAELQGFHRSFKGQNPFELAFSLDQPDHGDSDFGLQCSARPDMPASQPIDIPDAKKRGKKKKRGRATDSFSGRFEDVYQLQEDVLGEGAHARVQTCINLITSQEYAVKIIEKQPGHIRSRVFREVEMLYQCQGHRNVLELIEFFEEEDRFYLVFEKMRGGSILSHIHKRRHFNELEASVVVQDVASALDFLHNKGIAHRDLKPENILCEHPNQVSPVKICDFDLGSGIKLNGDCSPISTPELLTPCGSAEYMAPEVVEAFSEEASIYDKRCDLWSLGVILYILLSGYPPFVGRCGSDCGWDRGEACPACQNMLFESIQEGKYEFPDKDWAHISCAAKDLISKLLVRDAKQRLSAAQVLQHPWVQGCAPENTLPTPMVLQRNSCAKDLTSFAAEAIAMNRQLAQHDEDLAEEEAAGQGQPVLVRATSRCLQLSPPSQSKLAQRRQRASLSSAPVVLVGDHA

Chain of Serine/threonine-protein kinase VRK2 (Homo sapiens) (Q86Y07 whole entry): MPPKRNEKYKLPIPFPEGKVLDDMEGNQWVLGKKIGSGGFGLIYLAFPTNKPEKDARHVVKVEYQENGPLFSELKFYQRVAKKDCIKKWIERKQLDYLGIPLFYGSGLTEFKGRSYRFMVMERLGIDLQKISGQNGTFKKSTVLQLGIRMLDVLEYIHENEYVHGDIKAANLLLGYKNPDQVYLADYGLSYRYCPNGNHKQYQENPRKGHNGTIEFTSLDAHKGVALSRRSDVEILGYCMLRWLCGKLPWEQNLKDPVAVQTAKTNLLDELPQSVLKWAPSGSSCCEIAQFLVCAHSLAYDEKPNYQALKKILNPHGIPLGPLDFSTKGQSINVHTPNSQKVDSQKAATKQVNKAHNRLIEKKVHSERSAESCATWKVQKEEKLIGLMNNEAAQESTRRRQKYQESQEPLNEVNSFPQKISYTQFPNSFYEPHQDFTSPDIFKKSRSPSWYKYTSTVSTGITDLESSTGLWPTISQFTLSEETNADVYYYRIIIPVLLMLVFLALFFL
Chain of BDNF/NT-3 growth factors receptor (Homo sapiens) (Q16620 32-822 limits assumed): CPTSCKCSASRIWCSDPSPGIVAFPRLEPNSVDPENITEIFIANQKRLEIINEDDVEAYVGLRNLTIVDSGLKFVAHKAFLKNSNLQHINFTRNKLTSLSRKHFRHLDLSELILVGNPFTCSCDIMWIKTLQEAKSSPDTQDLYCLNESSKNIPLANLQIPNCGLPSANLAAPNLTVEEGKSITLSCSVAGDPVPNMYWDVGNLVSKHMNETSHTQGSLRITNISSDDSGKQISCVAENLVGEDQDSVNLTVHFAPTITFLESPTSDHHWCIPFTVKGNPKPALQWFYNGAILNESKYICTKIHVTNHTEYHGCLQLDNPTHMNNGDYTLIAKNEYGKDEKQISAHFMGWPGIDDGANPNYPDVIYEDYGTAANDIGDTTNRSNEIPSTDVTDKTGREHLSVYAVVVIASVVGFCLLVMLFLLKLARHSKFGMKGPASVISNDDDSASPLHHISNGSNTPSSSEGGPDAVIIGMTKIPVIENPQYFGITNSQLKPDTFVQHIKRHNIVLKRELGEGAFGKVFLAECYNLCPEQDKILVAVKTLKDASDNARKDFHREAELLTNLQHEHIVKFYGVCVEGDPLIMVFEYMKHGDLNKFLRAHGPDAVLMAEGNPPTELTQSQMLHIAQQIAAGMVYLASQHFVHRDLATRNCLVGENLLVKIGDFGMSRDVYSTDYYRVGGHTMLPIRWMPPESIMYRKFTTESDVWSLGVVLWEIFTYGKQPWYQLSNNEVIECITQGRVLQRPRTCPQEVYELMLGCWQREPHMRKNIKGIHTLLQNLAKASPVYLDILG

On to `C=CC(=O)Nc1cccc(C(=O)Nc2ccc(Nc3cc(-c4[nH]c(SC)nc4C)ccn3)cc2)c1`, for which the % of control in experiment [1] (at 1 µM) came out at 97%; in experiment [1] (at 5 µM) it was 83%.
Regarding `Cc1cc([C@@H](C)Nc2ccccc2C(=O)O)c2nc(N3CCOCC3)cc(=O)n2c1` [AZD-6482], the % of control in experiment [2] and in [3] was 100% in each case.
Molecule `CCN(CC)CCCCNc1ncc2cc(-c3cc(OC)cc(OC)c3)c(NC(=O)NC(C)(C)C)nc2n1` returned a % of control in experiment [4] of 100%.
For `CN(C)CCOc1ccc(-c2nc(-c3ccncc3)c(-c3ccc4c(c3)CC/C4=N\O)[nH]2)cc1`, the % of control in experiment [5] stood at 100%.
On to `Cn1cc(-n2cnc3c(NCc4nc5cc(Cl)c(Cl)cc5[nH]4)nc(N4CCOCC4)nc32)cn1`, for which the % of inhibition in [6] came to 12.3%. The molecule further gave a % of control in [7] of 4.86%.
Turning to `CC[C@@H]1[C@H](F)C(=O)N[C@@H]1COc1nccc2cc(C(N)=O)c(OC)cc12` [ZIMLOVISERTIB], the results for the % of inhibition in experiment [8] and in [9] were -3.4% and 1.6%, respectively.
`CCc1cccc(CC)c1NC(=O)c1nn(C)c2c1CCc1cnc(Nc3ccc(C(=O)NC4CCN(C)CC4)cc3OC(F)(F)F)nc1-2` came in with an IC50 in experiment [10] of over 10 µM.
In experiment [11], `COc1cc(N(C)c2ccnc3ccc(C(F)(F)F)cc23)cc(OC)c1OC` gave a % binding of 87%.
In experiment [12], `COCC(=O)NC/C=C/c1ccc2ncnc(Nc3ccc(Oc4ccc(C)nc4)c(C)c3)c2c1` [CP-724714] showed a % of control of 95%.
As to `O[C@H]1CC[C@H](Nc2ncc3nc(Nc4c(F)cc(F)cc4F)n([C@H]4CCOC4)c3n2)CC1`, the % of control in [13] is 100%.

For orientation: IC50 means the concentration that gives 50% inhibition.
